We go through 14 compounds from patent US20230159527A1, “COMPOUNDS AS BCL-2 INHIBITORS” (Fochon Pharmaceuticals, Ltd., priority 2020, published 2023).

One test deals with Toledo cells. The test can be described thus: Cell proliferation assay, Toledo cells (MTS, 72 h). Particulars: Homo sapiens, Toledo cells, MTS, read-out: Toledo IC50. It counts as cell-based. In short, it runs like this:
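Toledo cells (30000/well, RPMI-1640 with 10% FBS) were preincubated for 4 h. They were then exposed to nine compound concentrations from 10000 to 1.5 nM for 72 h at 37 °C, 5% CO2. MTS was added for 2 h and absorbance read at 490 nm to give IC50.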
Usually IC50 stands for the concentration at which inhibition is half-maximal. Consider `CC(C)c1ccccc1[C@H]1CCCN1C1CC2(CCN(c3ccc(C(=O)NS(=O)(=O)c4cc5c(c([N+](=O)[O-])c4)NC([C@H]4COCCO4)CO5)c(Oc4cnc5[nH]cc(F)c5c4)c3)CC2)C1` (single isomer, unassigned) [Example D-50a, N-(((R or S)-3-((S)-1,4-dioxan-2-yl)-5-nitro-3,4-dihydro-2H-benzo[b][1,4]oxazin-7-yl)sulfonyl)-2-((3-fluoro-1H-pyrrolo[2,3-b]pyridin-5-yl)oxy)-4-(2-((R or S)-2-(2-isopropylphenyl)pyrrolidin-1-yl)-7-azaspiro[3.5]nonan-7-yl)benzamide], for which the IC50 is 1 nM. On the same count and under the same terms, next, `CC(C)c1ccccc1[C@@H]1COCCN1C1CC2(CCN(c3ccc(C(=O)NS(=O)(=O)c4cnc(NC[C@H]5CC[C@](C)(O)CC5)c([N+](=O)[O-])c4)c(Oc4cc5cc[nH]c5nc4OC(F)F)c3)CC2)C1` (single isomer, unassigned) [Example A-126, 2-((6-(difluoromethoxy)-1H-pyrrolo [2,3-b]pyridin-5-yl)oxy)-N-((6-((((1r,4r)-4-hydroxy-4-methylcyclo-hexyl)methyl)amino)-5-nitropyridin-3-yl)sulfonyl)-4-(2-((R or S)-3-(2-isopropylphenyl)morpholino)-7-azaspiro[3.5]nonan-7-yl) benzamide]: 1 nM; `CC(C)c1ccccc1[C@@H]1COCCN1C1CC2(CCN(c3ccc(C(=O)NS(=O)(=O)c4cnc(NC[C@H]5CC[C@](C)(O)CC5)c([N+](=O)[O-])c4)c(Oc4cnc5[nH]ccc5c4)n3)CC2)C1` (single isomer, unassigned) [Example A-145, 2-((1H-pyrrolo[2,3-b]pyridin-5-yl)oxy)-N-((6-((((1r,4r)-4-hydroxy-4-methylcyclohexyl)methyl)amino)-5-nitropyridin-3-yl)sulfonyl)-6-(2-((R or S)-3-(2-isopropylphenyl)morpholino)-7-azaspiro[3.5]nonan-7-yl)nicotina-mide]: 1 nM; `CC(C)c1ccccc1[C@@H]1CCCN1C1CC2(CCN(c3ccc(C(=O)NS(=O)(=O)c4cc5c(c([N+](=O)[O-])c4)N[C@H]([C@H]4CC[C@H](O)CC4)CO5)c(Oc4cnc5[nH]cc(F)c5c4)c3)CC2)C1` (single isomer, unassigned) [Example D-42, 2-((3-fluoro-1H-pyrrolo[2,3-b]pyridin-5-yl)oxy)-N-(((R)-3-((1r,4R)-4-hydroxycyclohexyl)-5-nitro-3,4-dihydro-2H-benzo[b][1,4]oxazin-7-yl)sulfonyl)-4-(2-((R or S)-2-(2-isopropylphenyl)pyrrolidin-1-yl)-7-azaspiro[3.5]nonan-7-yl)benzamide]: 1 nM.

On to `CC(C)c1ccccc1[C@@H]1CCCN1C1CC2(CCN(c3ccc(C(=O)NS(=O)(=O)c4cc5c(c([N+](=O)[O-])c4)N[C@@H]([C@H]4CC[C@](C)(O)CC4)CO5)c(Oc4cc5cc[nH]c5nc4N4CCC4)c3)CC2)C1` (single isomer, unassigned) [Example D-183, 2-((6-(azetidin-1-yl)-1H-pyrrolo [2,3-b]pyridin-5-yl)oxy)-N-(((S)-3-((1r,4S)-4-hydroxy-4-methylcyclohexyl)-5-nitro-3,4-dihydro-2H-benzo[b][1,4]oxazin-7-yl)sulfonyl)-4-(2-((R or S)-2-(2-isopropylphenyl)pyrrolidin-1-yl)-7-azaspiro[3.5]nonan-7-yl)benzamide], for which the IC50 was determined as 1 nM.

Regarding `CC(C)c1ccccc1[C@@H]1CCCN1C1CC2(CCN(c3ccc(C(=O)NS(=O)(=O)c4cc5c(c([N+](=O)[O-])c4)N[C@@H]([C@H]4CC[C@](C)(O)CC4)CO5)c(Oc4cc5c(F)c[nH]c5nc4O[C@@H]4CCOC4)c3)CC2)C1` (single isomer, unassigned) [Example D-220, 2-((3-fluoro-6-(((R)-tetrahydrofuran-3-yl)oxy)-1H-pyrrolo[2,3-b]pyridin-5-yl)oxy)-N-((S)-3-((1r,4S)-4-hydroxy-4-methylcyclohexyl)-5-nitro-3,4-dihydro-2H-benzo [b][1,4]oxazin-7-yl)sulfonyl)-4-(2-((R or S)-2-(2-isopropylphenyl)pyrrolidin-1-yl)-7-azaspiro[3.5]nonan-7-yl)benzamide], the IC50 turned out to be 1 nM. The same measure, in the same setting: next, `CC(C)c1ccccc1[C@@H]1CCCN1C1CC2(CCN(c3ccc(C(=O)NS(=O)(=O)c4cc5c(c([N+](=O)[O-])c4)N[C@@H]([C@H]4CC[C@](C)(O)CC4)CO5)c(Oc4cc5cc[nH]c5nc4OCCO)c3)CC2)C1` (single isomer, unassigned) [Example D-68, N-(((S)-3-((1r,4S)-4-hydroxy-4-methylcyclohexyl)-5-nitro-3,4-dihydro-2H-benzo[b][1,4]oxazin-7-yl)sulfonyl)-2-((6-(2-hydroxyethoxy)-1H-pyrrolo[2,3-b]pyridin-5-yl)oxy)-4-(2-((R or S)-2-(2-isopropylphenyl)pyrrolidin-1-yl)-7-azaspiro[3.5]nonan-7-yl)benzamide]: 1 nM; `CC(C)c1ccccc1[C@@H]1CSCCN1C1CC2(CCN(c3ccc(C(=O)NS(=O)(=O)c4cc5c(c([N+](=O)[O-])c4)N[C@@H]([C@H]4CC[C@](C)(O)CC4)CO5)c(Oc4cnc5[nH]cc(F)c5c4)c3)CC2)C1` (single isomer, unassigned) [Example D-78, 2-((3-fluoro-1H-pyrrolo[2,3-b]pyridin-5-yl)oxy)-N-(((S)-3-((1r,4S)-4-hydroxy-4-methylcyclohexyl)-5-nitro-3,4-dihydro-2H-benzo[b] [1,4]oxazin-7-yl)sulfonyl)-4-(2-((R or S)-3-(2-isopropylphenyl)thiomorpholino)-7-azaspiro[3.5]nonan-7-yl)benzamide]: 1 nM; `CO[C@H]1CC[C@@H]([C@@H]2COc3cc(S(=O)(=O)NC(=O)c4ccc(N5CCC6(CC5)CC(N5CCC[C@H]5c5ccccc5C(C)C)C6)cc4Oc4cnc5[nH]cc(F)c5c4)cc([N+](=O)[O-])c3N2)CC1` (single isomer, unassigned) [Example D-46, 2-((3-fluoro-1H-pyrrolo[2,3-b]pyridin-5-yl)oxy)-4-(2-((R or S)-2-(2-isopropylphenyl)pyrrolidin-1-yl)-7-azaspiro[3.5]nonan-7-yl)-N-(((R)-3-((1s,4S)-4-methoxycyclohexyl)-5-nitro-3,4-dihydro-2H-benzo[b][1,4]oxazin-7-yl)sulfonyl)benzamide]: 1 nM. On the same count and under the same terms, next, `CC(C)Oc1nc2[nH]ccc2cc1Oc1cc(N2CCC3(CC2)CC(N2CCC[C@H]2c2ccccc2C(C)C)C3)ccc1C(=O)NS(=O)(=O)c1cc2c(c([N+](=O)[O-])c1)N[C@@H]([C@H]1CC[C@](C)(O)CC1)CO2` (single isomer, unassigned) [Example D-66, N-(((S)-3-((1r,4S)-4-hydroxy-4-methylcyclohexyl)-5-nitro-3,4-dihydro-2H-benzo[b][1,4]oxazin-7-yl)sulfonyl)-2-((6-isopropoxy-1H-pyrrolo[2,3-b]pyridin-5-yl)oxy)-4-(2-((R or S)-2-(2-isopropylphenyl)pyrrolidin-1-yl)-7-azaspiro[3.5]nonan-7-yl)benzamide]: 1 nM; `CC(C)c1ccccc1[C@@H]1CCC[C@@H]1N1CC2(CCN(c3ccc(C(=O)NS(=O)(=O)c4cc5c(c([N+](=O)[O-])c4)N[C@@H]([C@H]4CC[C@](C)(O)CC4)CO5)c(Oc4cc5cc[nH]c5nc4OC4COC4)c3)CC2)C1` (single isomer, unassigned) [Example D-108, N-(((S)-3-((1r,4S)-4-hydroxy-4-methylcyclohexyl)-5-nitro-3,4-dihydro-2H-benzo[b][1,4]oxazin-7-yl)sulfonyl)-4-(2-((1S,2S or 1R,2R)-2-(2-isopropylphenyl)cyclopentyl)-2,7-diazaspiro[3.5]nonan-7-yl)-2-((6-(oxetan-3-yloxy)-1H-pyrrolo[2,3-b]pyridin-5-yl)oxy) benzamide]: 1 nM.

The same test, now with this note: Homo sapiens, Toledo, read-out: Toledo IC50 (nM).
Turning to `CC(C)c1ccccc1[C@@H]1COCCN1C1CC2(CCN(c3ccc(C(=O)NS(=O)(=O)c4cc5c(c([N+](=O)[O-])c4)N[C@@H]([C@H]4CC[C@](C)(O)CC4)CO5)c(Oc4cnc5[nH]cc(Cl)c5c4)c3)CC2)C1` (single isomer, unassigned) [Example D-2, 2-((3-chloro-1H-pyrrolo[2,3-b]pyridin-5-yl)oxy)-N-(((S)-3-((1r,4S)-4-hydroxy-4-methylcyclohexyl)-5-nitro-3,4-dihydro-2H-benzo[b] [1,4]oxazin-7-yl)sulfonyl)-4-(2-((R or S)-3-(2-isopropylphenyl)morpholino)-7-azaspiro[3.5]nonan-7-yl) benzamide], the IC50 was 1 nM.

Take `CC(C)c1ccccc1[C@@H]1CCCN1C1CC2(CCN(c3ccc(C(=O)NS(=O)(=O)c4ccc(NC[C@H]5CC[C@](C)(O)CC5)c([N+](=O)[O-])n4)c(Oc4cnc5[nH]ccc5c4)c3)CC2)C1` (single isomer, unassigned) [Example C-2, 2-((1H-pyrrolo[2,3-b]pyridin-5-yl)oxy)-N-((5-((((1r,4r)-4-hydroxy-4-methylcyclohexyl)methyl)amino)-6-nitropyridin-2-yl)sulfonyl)-4-(2-((R or S)-2-(2-isopropylphenyl)pyrrolidin-1-yl)-7-azaspiro[3.5]nonan-7-yl)benzamide]: the IC50 came out at 1 nM.

Staying with this test, now noted: Toledo cells, MTS, read-out: Toledo IC50.
For the compound `CC(C)c1ccccc1C1COCCN1C1CC2(CCN(c3ccc(C(=O)NS(=O)(=O)c4cc5c(c([N+](=O)[O-])c4)S[C@@H](C4CCC(C)(O)CC4)CO5)c(Oc4cnc5[nH]cc(F)c5c4)c3)CC2)C1` (single isomer, unassigned) [Example E-6, 2-((3-fluoro-1H-pyrrolo[2,3-b]pyridin-5-yl)oxy)-N-(((S)-3-((1r,4S)-4-hydroxy-4-methylcyclohexyl)-5-nitro-2,3-dihydrobenzo [b][1,4]oxathiin-7-yl)sulfonyl)-4-(2-((R or S)-3-(2-isopropylphenyl)morpholino)-7-azaspiro[3.5]nonan-7-yl)benzamide], the IC50 turned out to be 1 nM.
